Structures can show the parent of a compound that is named as a salt.
Experiments:
Assay type in all cases: biochemical
[1] = target: T1, CYP3A4 (Homo sapiens, UniProt P08684); assay: IC50 against CYP3A4 by inhibition of midazolam metabolism in human liver microsomes; conditions: 0.1 mg/mL human liver microsomes, 2 μM midazolam, 1 mM NADPH, 1-hydroxymidazolam production, eight minutes; read-out: IC50, μM (HLM, midazolam)
T1 construct: 0.1 mg/mL human liver microsomes; from tissue; host or cells: human liver microsomes
Summary of the method: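 Human liver microsomes (0.1 mg/mL) incubated 8 min with 2 μM midazolam and 1 mM NADPH in 100 mM potassium phosphate, pH 7.4. 1-Hydroxymidazolam quantified by LC-MS/MS (MRM) as peak area ratio to internal standard against a metabolite standard curve.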

[2] = target: T2, recombinant CYP3A4-b5 enzyme (Baculosomes®) (Homo sapiens, UniProt P08684); assay: Kiapp against recombinant CYP3A4 enzyme (Baculosomes), BFC substrate; conditions: recombinant CYP3A4-b5 (Invitrogen), 5 uM BFC, 200 uM NADPH, pre-incubation at least 30 minutes, pH 7.0, room temperature
T2 construct: purchased Invitrogen (Carlsbad, Calif.)
Summary of the method: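 Recombinant CYP3A4-b5 Baculosomes were run in 100 mM sodium phosphate pH 7.0 with 5 mM TCEP and 2% DMF at room temperature, with ~30 min pre-incubation. The reaction was started with NADPH (200 uM) and BFC (5 uM), both final. Kiapp came from initial fluorescence velocities over the first 5 min across inhibitor concentrations.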

[3] = target: T3, recombinant CYP3A4+b5 enzyme (Supersomes®) (Homo sapiens, UniProt P08684); assay: Kiapp against recombinant CYP3A4 enzyme (Supersomes), BFC substrate; conditions: recombinant CYP3A4+b5 (BD Biosciences), 5 uM BFC, 200 uM NADPH, pre-incubation at least 30 minutes, pH 7.0, room temperature
T3 construct: purchased BD Biosciences (Woburn, Mass.)
Method: 1. Determination of Compound Kiapp
A determination of the Kiapp of the compounds of the invention against recombinant CYP3A4 enzyme was performed as follows. The assay was performed in a 100 mM sodium phosphate buffer pH 7.0, 5 mM TCEP and containing 2% dimethylformamide (final concentration) upon addition of substrate and inhibitor. A typical reaction for the determination of Kiapp values was carried at room temperature in a solid black Costar u-bottom 96-well polypropylene plate. In each well, recombinant CYP3A4 enzyme (5.5 nM or 8 nM, final concentration depending on the commercial source of the enzyme) was pre-incubated in the presence of the inhibitor for at least 30 minutes in the assay buffer. When pre-incubation was completed (˜30 min), the reaction was initiated by adding NADPH (200 uM, final concentration), and 7-benzyloxy-4-(trifluoromethyl)-coumarin (BFC) (5 uM, final concentration). The oxidation of the coumarin substrate was recorded by a 96-well plate reader POLARstar (BMG LABTECH, Offenburg, Germany).
The initial reaction velocities were measured during the first 5 min of the reaction when the release of the fluorescent product is linear with time, in the absence and in the presence of various concentrations of inhibitors. For non-partial & partial inhibitors, the Kiapp values were determined by using the equation for tight-binding inhibitor developed by Morrison, J F (Morrison J F. Biochim Biophys Acta. 1969, 185: 269-86) and by Szedlaseck S E et al. (Szedlascek, S. E., Ostafe, V., Serban, M., and Vlad, M. O. Biochem. J. 1988, 254:311-312), respectively.
The fluorescent substrate BFC was purchased from Sigma (St Louis, Mo.). Two commercial sources of recombinant enzymes were used in this study: recombinant CYP3A4-b5 enzyme (Baculosomes®) was purchased from Invitrogen (Carlsbad, Calif.) and the recombinant CYP3A4+b5 enzyme (Supersomes®) was purchased from BD Biosciences (Woburn, Mass.).

[4] = target: T1, CYP3A4; assay: IC50 against CYP3A4 by inhibition of testosterone metabolism in human liver microsomes; conditions: 0.1 mg/mL human liver microsomes, 25 μM testosterone, 1 mM NADPH, 6-β-OH-testosterone production, eight minutes; read-out: IC50, μM (HLM, testosterone)
Summary of the method: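 Testosterone used as substrate, incubated for eight minutes. 6-β-OH-testosterone formation quantified by LC-MS/MS (MRM) as peak area ratio to internal standard against a metabolite standard curve. IC50 derived from inhibition of this metabolism.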

T3 sequence (P08684 2-503 limits assumed): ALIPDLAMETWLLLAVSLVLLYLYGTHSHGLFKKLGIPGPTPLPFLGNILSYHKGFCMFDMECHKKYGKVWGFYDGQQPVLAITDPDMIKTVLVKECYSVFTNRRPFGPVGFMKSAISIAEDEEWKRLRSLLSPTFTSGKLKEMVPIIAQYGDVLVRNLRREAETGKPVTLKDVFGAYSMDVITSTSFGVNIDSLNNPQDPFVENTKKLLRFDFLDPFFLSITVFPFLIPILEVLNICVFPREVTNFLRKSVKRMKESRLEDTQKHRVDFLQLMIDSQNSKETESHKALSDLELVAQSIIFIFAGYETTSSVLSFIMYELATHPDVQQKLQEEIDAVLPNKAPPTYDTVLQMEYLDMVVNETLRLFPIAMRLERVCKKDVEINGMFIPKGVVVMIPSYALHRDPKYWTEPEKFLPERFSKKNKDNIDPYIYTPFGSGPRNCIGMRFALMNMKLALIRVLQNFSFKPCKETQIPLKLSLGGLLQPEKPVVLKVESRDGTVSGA
T2 sequence (P08684 whole entry): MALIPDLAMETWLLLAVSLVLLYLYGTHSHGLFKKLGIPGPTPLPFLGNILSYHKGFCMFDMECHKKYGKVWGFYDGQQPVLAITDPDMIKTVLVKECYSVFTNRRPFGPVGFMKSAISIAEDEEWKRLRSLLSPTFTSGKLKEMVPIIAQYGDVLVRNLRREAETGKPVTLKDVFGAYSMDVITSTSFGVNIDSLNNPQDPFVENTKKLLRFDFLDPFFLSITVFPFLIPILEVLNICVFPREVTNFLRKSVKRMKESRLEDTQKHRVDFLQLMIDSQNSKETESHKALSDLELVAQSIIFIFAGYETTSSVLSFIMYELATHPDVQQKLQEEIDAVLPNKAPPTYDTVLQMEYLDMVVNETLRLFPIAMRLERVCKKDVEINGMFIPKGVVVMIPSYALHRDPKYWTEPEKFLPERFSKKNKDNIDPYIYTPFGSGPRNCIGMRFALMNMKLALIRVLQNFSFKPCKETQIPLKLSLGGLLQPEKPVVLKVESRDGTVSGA
T1 sequence (P08684 whole entry): as above

Row | Compound | IC50 [1] | Ki [2] | Ki [3] | IC50 [4]
1 | Fc1ccc(Cc2cc(-c3ccncc3)n[nH]2)cc1 [Example 1, 4-[5-(4-fluorobenzyl)-1H-pyrazol-3-yl]pyridine] | 0.077 µM | 0.0557 µM | 0.0064 µM | < 0.022 µM
2 | O=C(Cn1nc(-c2ccncc2)cc1Cc1ccc(F)cc1)N1CCCC(N2CCOCC2)CC1 (stereo not drawn) [Example 4, 1-{[5-(4-fluorobenzyl)-3-pyridin-4-yl-1H-pyrazol-1-yl]acetyl}-4-morpholin-4-ylazepane, maleic acid salt] | 0.023 µM | 0.0211 µM | 0.0061 µM | 0.057 µM
3 | CS(=O)(=O)C1CCN(C(=O)Cn2nc(-c3ccncc3)cc2Cc2ccc(F)cc2)CC1 [Example 6, 4-(5-(4-fluorobenzyl)-1-{2-[4-(methylsulfonyl)piperidin-1-yl]-2-oxoethyl}-1H-pyrazol-3-yl)pyridine] | 0.0218 µM | 0.0237 µM | 0.0118 µM | 0.024 µM
4 | CNC1CCN(C(=O)Cn2nc(-c3ccncc3)cc2Cc2ccc(F)cc2)CC1 [Example 7, 1-{[5-(4-fluorobenzyl)-3-pyridin-4-yl-1H-pyrazol-1-yl]acetyl}-N-methylpiperidin-4-amine] | 0.073 µM | 0.196 µM | 0.033 µM | 0.105 µM
5 | CC(C)(CN1CCOCC1)NC(=O)Cn1nc(-c2c[nH]nn2)cc1Cc1ccc(F)cc1 [Example 50, N-(1,1-dimethyl-2-morpholin-4-ylethyl)-2-[5-(4-fluorobenzyl)-3-(1H-1,2,3-triazol-4-yl)-1H-pyrazol-1-yl]acetamide] | 0.132 µM | 0.729 µM | 0.389 µM | 0.168 µM
6 | CC(=O)NC(C)(C)CNC(=O)Cn1nc(-c2ccncc2)cc1Cc1ccc(F)cc1 [Example 71, N-[2-(acetylamino)-2-methylpropyl]-2-[5-(4-fluorobenzyl)-3-pyridin-4-yl-1H-pyrazol-1-yl]acetamide] | 0.034 µM | 0.0599 µM | 0.0237 µM | 0.035 µM
7 | CN(C)[C@H]1CCN(C(=O)Cn2nc(-c3ccncc3)cc2Cc2ccc(F)cc2)C1 [Example 73, (3S)-1-{[5-(4-fluorobenzyl)-3-pyridin-4-yl-1H-pyrazol-1-yl]acetyl}-N,N-dimethylpyrrolidin-3-amine] | 0.018 µM | 0.211 µM | 0.0339 µM | 0.0435 µM
8 | CC(=O)N(C)C1CCN(C(=O)Cn2nc(-c3ccncc3)cc2Cc2ccc(F)cc2)C1 (stereo not drawn) [Example 99, N-(1-{[5-(4-fluorobenzyl)-3-pyridin-4-yl-1H-pyrazol-1-yl]acetyl}pyrrolidin-3-yl)-N-methylacetamide] | 0.032 µM | 0.248 µM | 0.0178 µM | 0.064 µM
9 | CC(=O)N[C@@H]1CCN(C(=O)Cn2nc(-c3ccncc3)cc2Cc2ccc(F)cc2)C1 [Example 100, N-[(3R)-1-{2-[5-(4-fluorobenzyl)-3-pyridin-4-yl-1H-pyrazol-1-yl]acetyl}pyrrolidin-3-yl]acetamide] | 0.044 µM | 0.298 µM | 0.0225 µM | 0.0845 µM
10 | O=C(Cn1nc(-c2ccncc2)cc1Cc1ccc(F)cc1)N1CC[C@@H](N2CCOCC2)C1 [Example 103] | 0.025 µM | 0.106 µM |  | 0.068 µM
11 | CC(C)NC(=O)Cn1nc(-c2c[nH]cn2)cc1Cc1ccc(F)cc1 [Example 111, 2-[5-(4-fluorobenzyl)-3-(1H-imidazol-4-yl)-1H-pyrazol-1-yl]-N-isopropylacetamide] | 0.223 µM | 0.838 µM |  | 0.714 µM

Molecules with a lower IC50 [1], results first:

Row | IC50 [1] | Ki [2] | Ki [3] | IC50 [4] | Compound
12 | 0.00707 µM | 0.0369 µM | 0.0139 µM | 0.016 µM | CC(C)NC(=O)N(C)C1CCN(C(=O)Cn2nc(-c3ccncc3)cc2Cc2ccc(F)cc2)CC1 [Example 16, N-(1-{[5-(4-fluorobenzyl)-3-pyridin-4-yl-1H-pyrazol-1-yl]acetyl}piperidin-4-yl)-N′-isopropyl-N-methylurea]
13 | 0.0115 µM | 0.0667 µM | 0.0231 µM | 0.035 µM | CC(C)NC(=O)NC1CCN(C(=O)Cn2nc(-c3ccncc3)cc2Cc2ccc(F)cc2)CC1 [Example 17, N-(1-{[5-(4-fluorobenzyl)-3-pyridin-4-yl-1H-pyrazol-1-yl]acetyl}piperidin-4-yl)-N′-isopropylurea]
14 | 0.0138 µM | 0.128 µM | 0.0057 µM | 0.033 µM | CS(=O)(=O)NC1CCN(C(=O)Cn2nc(-c3ccncc3)cc2Cc2ccc(F)cc2)CC1 [Example 19, N-(1-{2-[5-(4-fluorobenzyl)-3-pyridin-4-yl-1H-pyrazol-1-yl]acetyl}piperidin-4-yl)methanesulfonamide]
15 | 0.014 µM | 0.0134 µM | 0.0039 µM | 0.007 µM | O=C(Cn1nc(-c2ccncc2)cc1Cc1ccc(F)cc1)NC1CCS(=O)(=O)C1 (stereo not drawn) [Example 93, N-(1,1-dioxidotetrahydro-3-thienyl)-2-[5-(4-fluorobenzyl)-3-pyridin-4-yl-1H-pyrazol-1-yl]acetamide]
16 | < 0.012 µM | 0.0871 µM | 0.0059 µM | < 0.021 µM | O=C(Cn1nc(-c2ccncc2)cc1Cc1ccc(F)cc1)N[C@H]1CC[C@@H](O)CC1 [Example 95, 2-[5-(4-fluorobenzyl)-3-pyridin-4-yl-1H-pyrazol-1-yl]-N-(cis-4-hydroxycyclohexyl)-acetamide]
17 | 0.006 µM | 0.002 µM |  | 0.009 µM | CC(C)OC(=O)N(C)C1CCN(C(=O)Cn2nc(-c3ccncc3)cc2Cc2ccc(F)cc2)CC1 [Example 112, isopropyl (1-{[5-(4-fluorobenzyl)-3-pyridin-4-yl-1H-pyrazol-1-yl]acetyl}piperidin-4-yl)methylcarbamate]
18 | 0.009 µM | 0.00676 µM |  | 0.011 µM | CCOC(=O)N(C)C1CCN(C(=O)Cn2nc(-c3ccncc3)cc2Cc2ccc(F)cc2)CC1 [Example 113]
19 | 0.004 µM | 0.0338 µM |  | 0.015 µM | CCNC(=O)N(C)C1CCN(C(=O)Cn2nc(-c3ccncc3)cc2Cc2ccc(F)cc2)CC1 [Example 115, 3-ethyl-1-(1-{[5-(4-fluorobenzyl)-3-pyridin-4-yl-1H-pyrazol-1-yl]acetyl}piperidin-4-yl)-1-methylurea]
20 | < 0.003 µM | 0.0141 µM |  | 0.008 µM | CC(C)OC(=O)NC1CCN(C(=O)Cn2nc(-c3ccncc3)cc2Cc2ccc(F)cc2)CC1 [Example 116, isopropyl (1-{[5-(4-fluorobenzyl)-3-pyridin-4-yl-1H-pyrazol-1-yl]acetyl}piperidin-4-yl)carbamate]
21 | 0.011 µM | 0.0702 µM |  | 0.018 µM | CNC(=O)N(C)C1CCN(C(=O)Cn2nc(-c3ccncc3)cc2Cc2ccc(F)cc2)CC1 [Example 117, 1-(1-{[5-(4-fluorobenzyl)-3-pyridin-4-yl-1H-pyrazol-1-yl]acetyl}piperidin-4-yl)-1,3-dimethylurea]
22 | 0.00837 µM | 0.0442 µM | 0.0065 µM | 0.013 µM | O=C(Cn1nc(-c2ccncc2)cc1Cc1ccc(F)cc1)N1CCC(N2CCOC2=O)CC1 [Example 118, 3-(1-{[5-(4-fluorobenzyl)-3-pyridin-4-yl-1H-pyrazol-1-yl]acetyl}piperidin-4-yl)-1,3-oxazolidin-2-one]

Source: US7919488B2, “Therapeutic compounds” (Pfizer Inc., priority 2006, dated 2011)
